Experimental data taken from patent EP3181574A1, “HIGHLY SOLUBLE REBAUDIOSIDE D” (Purecircle USA, priority 2010, dated 2012).
Where two headings read alike, the source gives them in different places.

Tests used:
[1] = cited from earlier work
[2] = water, room temperature; cited from earlier work
[3] = Solubility of Rebaudioside D (crystalline vs amorphous) in water; assay type: physicochemical; details: for solubility: room temperature, % = grams soluble in 100 grams of solvent
Protocol: Hereinafter, unless specified otherwise the solubility of material is determined in RO (reverse osmosis) water at room temperature. Where the solubility is expressed as "%" it to be understood as number of grams of material soluble in 100 grams of solvent.
100g of crystalline Rebaudioside D, produced by PureCircle Sdn Bhd, with 98.1% purity (on anhydrous basis) was dissolved in 500 mL aqueous ethanol, containing 50% (vol.) ethanol. The solution was maintained at 50°C and dried using a YC-015 laboratory spray drier (Shanghai Pilotech Instrument & Equipment Co. Ltd., China) operating at 175°C inlet and 100°C outlet temperatures. […]

[4] = 50°C, solution crystallized after cooling down to room temperature (20°C)
[5] = 100°C, solution crystallized after cooling down to room temperature (20°C)

With `C=C1C[C@@]23CC[C@H]4[C@@](C)(CCC[C@@]4(C)C(=O)O[C@@H]4O[C@H](CO)[C@@H](O)[C@H](O)[C@H]4O)[C@@H]2CC[C@]1(O[C@@H]1O[C@H](CO)[C@@H](O)[C@H](O[C@@H]2O[C@H](CO)[C@@H](O)[C@H](O)[C@H]2O)[C@H]1O[C@@H]1O[C@H](CO)[C@@H](O)[C@H](O)[C@H]1O)C3` [Form 1 Hydrate, Rebaudioside A] as the compound, how does the “Rate of dissolution in H2O at 25°C” value ([1]; in 60 minutes) read?
Its value is “Very low (<0.2% in 60 minutes)”.

Which “Rate of dissolution in H2O at 25°C” value ([1]; in 5 minutes) does the source give for `C=C1C[C@@]23CC[C@H]4[C@@](C)(CCC[C@@]4(C)C(=O)O[C@@H]4O[C@H](CO)[C@@H](O)[C@H](O)[C@H]4O)[C@@H]2CC[C@]1(O[C@@H]1O[C@H](CO)[C@@H](O)[C@H](O[C@@H]2O[C@H](CO)[C@@H](O)[C@H](O)[C@H]2O)[C@H]1O[C@@H]1O[C@H](CO)[C@@H](O)[C@H](O)[C@H]1O)C3` [Form 2 Anhydrous, Rebaudioside A] here?
The value was “Intermediate (<30% in 5 minutes)”.

Which “Rate of dissolution in H2O at 25°C” value ([1]; in 5 minutes) does the source give for `C=C1C[C@@]23CC[C@H]4[C@@](C)(CCC[C@@]4(C)C(=O)O[C@@H]4O[C@H](CO)[C@@H](O)[C@H](O)[C@H]4O)[C@@H]2CC[C@]1(O[C@@H]1O[C@H](CO)[C@@H](O)[C@H](O[C@@H]2O[C@H](CO)[C@@H](O)[C@H](O)[C@H]2O)[C@H]1O[C@@H]1O[C@H](CO)[C@@H](O)[C@H](O)[C@H]1O)C3` [Form 3 Solvate, Rebaudioside A] here?
The value was “High (>30% in 5 minutes)”.

Which “Rate of dissolution in H2O at 25°C” value ([1]; in 5 minutes) does the source give for `C=C1C[C@@]23CC[C@H]4[C@@](C)(CCC[C@@]4(C)C(=O)O[C@@H]4O[C@H](CO)[C@@H](O)[C@H](O)[C@H]4O)[C@@H]2CC[C@]1(O[C@@H]1O[C@H](CO)[C@@H](O)[C@H](O[C@@H]2O[C@H](CO)[C@@H](O)[C@H](O)[C@H]2O)[C@H]1O[C@@H]1O[C@H](CO)[C@@H](O)[C@H](O)[C@H]1O)C3` [Form 4 Amorphous, Rebaudioside A] here?
The value was “High (>35% in 5 minutes)”.

For `C=C1C[C@@]23CC[C@H]4[C@@](C)(CCC[C@@]4(C)C(=O)O[C@@H]4O[C@H](CO)[C@@H](O)[C@H](O)[C@H]4O)[C@@H]2CC[C@]1(O[C@@H]1O[C@H](CO)[C@@H](O)[C@H](O[C@@H]2O[C@H](CO)[C@@H](O)[C@H](O)[C@H]2O)[C@H]1O[C@@H]1O[C@H](CO)[C@@H](O)[C@H](O)[C@H]1O)C3` [Rebaudioside A], which thermodynamic equilibrium solubility [2] is on record?
The thermodynamic equilibrium solubility was 0.8%.

Which “solubility when heat is applied” value ([3]; water, heated, upon cooling to room temperature crystallizes back out from the solution) does the source give for `C=C1C[C@@]23CC[C@H]4[C@@](C)(CCC[C@@]4(C)C(=O)O[C@@H]4O[C@H](CO)[C@@H](O)[C@H](O)[C@H]4O[C@@H]4O[C@H](CO)[C@@H](O)[C@H](O)[C@H]4O)[C@@H]2CC[C@]1(O[C@@H]1O[C@H](CO)[C@@H](O)[C@H](O[C@@H]2O[C@H](CO)[C@@H](O)[C@H](O)[C@H]2O)[C@H]1O[C@@H]1O[C@H](CO)[C@@H](O)[C@H](O)[C@H]1O)C3` [Rebaudioside D] here?
Its value is “up to 0.5%”.

What about the solubility ([3]; water) of the same compound?
The solubility was 0.05%.

With `C=C1C[C@@]23CC[C@H]4[C@@](C)(CCC[C@@]4(C)C(=O)O[C@@H]4O[C@H](CO)[C@@H](O)[C@H](O)[C@H]4O[C@@H]4O[C@H](CO)[C@@H](O)[C@H](O)[C@H]4O)[C@@H]2CC[C@]1(O[C@@H]1O[C@H](CO)[C@@H](O)[C@H](O[C@@H]2O[C@H](CO)[C@@H](O)[C@H](O)[C@H]2O)[C@H]1O[C@@H]1O[C@H](CO)[C@@H](O)[C@H](O)[C@H]1O)C3` [amorphous Reb D, Rebaudioside D] as the compound, how does the “Solubility, % (in water)” value ([3]; 20°C) read?
The value was 0.1%.

And the “Solubility, % (in water)” value [3, 4]?
Its value is 0.5%.

What about the “Solubility, % (in water)” value [3, 5] of the same compound?
The value was 1.1%.

And the solubility ([3]; water)?
Its solubility is 0.2%.

Which results are given for `C=C1C[C@@]23CC[C@H]4[C@@](C)(CCC[C@@]4(C)C(=O)O[C@@H]4O[C@H](CO)[C@@H](O)[C@H](O)[C@H]4O[C@@H]4O[C@H](CO)[C@@H](O)[C@H](O)[C@H]4O)[C@@H]2CC[C@]1(O[C@@H]1O[C@H](CO)[C@@H](O)[C@H](O[C@@H]2O[C@H](CO)[C@@H](O)[C@H](O)[C@H]2O)[C@H]1O[C@@H]1O[C@H](CO)[C@@H](O)[C@H](O)[C@H]1O)C3` [crystalline Rebaudioside D, Rebaudioside D]?
Solubility, % (in water) ([3]; 20°C): 0.05%; Solubility, % (in water) [3, 4]: 0.2%; Solubility, % (in water) [3, 5]: 0.5%; solubility ([3]; water): 0.05%
